# Reference: US20150125506A1, “RETINAL PIGMENT EPITHELIAL CELLS DIFFERENTIATED FROM EMBRYONIC STEM CELLS WITH NICOTINAMIDE AND ACTIVIN A” (HADASIT MEDICAL RESEARCH SERVICES AND DEVELOPMENT LTD., priority 2007, published 2015)
# Tested on: hESC clusters
# Test: RT-PCR and Real-time PCR of marker transcripts in differentiating hESC clusters
# Format: cell-based, human
# Details: for enhancement of MiTF-A expression by NA supplementation / increase of RPE65 expression with vs without NA: 12 weeks
# Description: Six-eight days after plating the hES cells that were dissociated into single cells as above; they were removed from the feeders by treatment with type IV collagenase. The clumps were cultured for various periods up to 12 weeks in suspension within bacteriological dishes precoated with 0.1% low melting temperature agarose in KO medium (KOM) consisting of 86% KO-DMEM, 14% KOSR, 1 mM glutamine, 1% nonessential amino acids, 50 units/ml penicillin, and 50 μg/ml streptomycin, in the presence or absence of 10 mM nicotinamide (NA) (Sigma, St. Louis, Mo., USA). In some experiments the medium used was Neurobasal™ medium (Gibco) supplemented with N2 supplement (1:100) (Gibco) (NN medium), which was substituted after 1 week with DMEM/F12 (Gibco) supplemented with B27 (1:50) (Gibco).
# Human ESCs were allowed to differentiate as free-floating clusters in KOM as above for up to six weeks in the presence of nicotinamide (NA) 10 mM. After the first week or 2 weeks of differentiation, cultures were supplemented with activin A 20-180 ng/ml (PeproTech Inc, Rocky Hill, N.J.), with TGFβ3 (1 ng/ml; R&D Systems Inc, Minneapolis, Minn.) with TGFβ1 (1 ng/ml-20 ng/ml; R&D Systems Inc) or with SB431542 (5 μM-50 μM, Sigma). Control cultures were supplemented with NA alone.
# Human ESCs in suspension in KOM were also supplemented after one week with the bone morphogenetic protein (BMP) antagonist noggin (700 ng/ml R&D Systems Inc, Minneapolis, Minn.) in the presence and absence of NA, or during the 3rd and 4th weeks with TGFβ (20 ng/ml PeproTech Inc) in the presence of NA and allowed to differentiate up to an age of 6 weeks as free-floating clusters in suspension.
# Total RNA was extracted from hESCs grown under serum-free conditions (1 week after passage), and at sequential time points up to 8 weeks during culturing of hESC-derived clusters in the presence or absence of 10 mM nicotinamide and with or without supplementation with TGFβ-superfamily growth factors or antagonists. The RNA was isolated using TRIzol reagent (Invitrogen, http://www.invitrogen.com) or TRI-Reagent (Sigma). cDNA synthesis was carried out using Moloney murine leukemia virus reverse transcriptase (M-MLV RT) and random primers, according to the manufacturer's instructions (Promega Corporation, Madison, Wis., http://www. promega.com). Polymerase chain reaction (PCR) was carried out using standard protocols with Taq DNA Polymerase (Gibco-BRL). Amplification conditions were as follows: denaturation at 94° C. for 15 seconds, annealing at 55° C. for 30 seconds, and extension at 72° C. for 45 seconds. The number of cycles varied between 18 and 40, depending on particular mRNA abundance. Primer human sequences for identifying human gene transcripts (forward and reverse 5′-3′) and the length of the amplified products were as follows (SEQ ID NOs. 1-12):
# For Real-time PCR the levels of transcripts were monitored using TaqMan primers and probes that were derived from the commercially available TaqMan® Assays-on-Demand Gene Expression Products (Applied Biosystems, Foster City, Calif.): Oct4, ID Hs01895061; Musashi, ID Hs01045894; Pax6, ID Hs00240871; Six3, ID Hs00193667; Rx1, ID Hs00429459; Chx10, ID Hs01584048; MiTF-A, ID Hs01115553; MiTF-total, ID Hs01115557; Bestrophin, ID Hs00188249; RPE65, ID Hs00165642; Sox10, ID Hs00366918; Crx, ID Hs00230899. Quantitative PCR analysis was performed using an ABI Prism 7000HT and ABI Prism 7900HT Sequence Detection Systems and TaqMan® Universal PCR Master Mix (Applied Biosystems) according to the manufacturer's protocol. Housekeeping gene β-glucuronidase (GusB, assay ID Hs99999908) was selected as an internal reference for normalization in the Real-Time RT-PCR quantification analysis and the relative expression level of each gene is shown as a relative value when the expression level of day 0 (or untreated cells) was set at 1. Amplification reactions were carried out in duplicates or triplicates according to manufacturer's protocol (Applied Biosystems).
# [1] = 2 weeks old clusters, RT-PCR, with vs without NA
# [2] = 6 weeks of differentiation, KOM, with vs without NA, Real-time RT-PCR
smiles,measurement,setting,value
"NC(=O)c1cccnc1 [NA, nicotinamide]",expression of activin receptor ACTRIB,[1],high
same,expression of activin receptor ACTRIIB,[1],high
same,increase of MiTF-A expression in presence of NA,[2],nearly two-fold
same,increase of RPE65 expression in presence of NA,[2],~30 fold
same,augmentation of RPE65 expression,"8-week time course, NA-treated vs spontaneously differentiating clusters",> 100 folds
same,enhancement of MiTF-A expression by NA supplementation,KOM,approximately 3 fold
same,increase of RPE65 expression with vs without NA,KOM,approximately doubled
same,expression of Chx10,NA treatment vs no NA,increased
same,expression of Crx (photoreceptor progenitor marker),NA treatment vs no NA,increased
same,expression of Rx1 transcripts,NA treatment vs no NA,increased
same,expression of Six3 transcripts,NA treatment vs no NA,increased
same,expression of Bestrophin transcripts,NA-treated cultures vs spontaneously differentiating hESC clusters,higher
same,enhancement of MiTF-A expression by NA supplementation,NN/DMEM medium,approximately 2.5 fold
same,increase of RPE65 expression with vs without NA,NN/DMEM medium,~6 fold
same,expression of Pax6 transcripts,"after 2-6 weeks of differentiation, with vs without NA",significantly increased
same,expression of Otx2 transcripts,"after 2 weeks of differentiation, with vs without NA",significantly increased
same,expression of Musashi transcripts,"after 4-6 weeks of differentiation, with vs without NA",significantly increased
same,expression of transcripts of the early RPE marker MiTF A,time course in presence of NA,induced after 4 weeks
same,expression of Oct4 (marker of undifferentiated hESCs),"time course, with vs without NA",declined more rapidly
same,expression of Sox10 (melanocyte developmental marker),"with vs without NA, M51 melanoma cell line as control",not dependent on NA supplementation
